Measurements published in ChEMBL document CHEMBL1201862, “PubChem BioAssay data set” (2004).
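Exposure lasted 48 hours, with cells grown in 96-well plates and compounds tested at five concentrations. Abbreviation: GI50, concentration required for 50% inhibition of growth.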 Active and inactive are the calls of the source. No stated cut-off is given here; in the data, active = GI50 up to about 1.1 µM and inactive = higher.

Experiments:
Assay in all cases: NCI tumour cell line growth inhibition, 48 h
786-0 = tested on: 786-0
A549 = tested on: A549
ACHN = tested on: ACHN
EKVX = tested on: EKVX
HCT-116 = tested on: HCT-116
HCT-15 = tested on: HCT-15
HOP-92 = tested on: HOP-92
HT-29 = tested on: HT-29
NCI-H23 = tested on: NCI-H23
NCI-H522 = tested on: NCI-H522
OVCAR-3 = tested on: OVCAR-3
OVCAR-5 = tested on: OVCAR-5
RXF 393 = tested on: RXF 393
SNB-19 = tested on: SNB-19
SW-620 = tested on: SW-620
U-251 = tested on: U-251
UACC-257 = tested on: UACC-257
UO-31 = tested on: UO-31
Malme-3M = tested on: Malme-3M
SNB-75 = tested on: SNB-75

Row | SMILES | GI50 (786-0) | GI50 (A549) | GI50 (ACHN) | GI50 (EKVX) | GI50 (HCT-116) | GI50 (HCT-15) | GI50 (HOP-92) | GI50 (HT-29) | GI50 (NCI-H23) | GI50 (NCI-H522) | GI50 (OVCAR-3) | GI50 (OVCAR-5) | GI50 (RXF 393) | GI50 (SNB-19) | GI50 (SW-620) | GI50 (U-251) | GI50 (UACC-257) | GI50 (UO-31) | GI50 (Malme-3M) | GI50 (SNB-75)
1 | Cc1nc(C)c(C(=O)NNC(N)=S)cc1C(=O)NNC(N)=S | > 100 µM (inactive) | > 100 µM (inactive) | > 100 µM (inactive) | > 100 µM (inactive) | > 100 µM (inactive) | > 100 µM | > 100 µM (inactive) | > 100 µM (inactive) | > 100 µM (inactive) | > 100 µM (inactive) | > 100 µM (inactive) | > 100 µM (inactive) | > 100 µM (inactive) | > 100 µM (inactive) | > 100 µM (inactive) | > 100 µM (inactive) | > 100 µM (inactive) | > 100 µM (inactive) | – | –
2 | COC(=O)C1=C(O)c2cc(OC)c(OC)cc2C(c2ccc(OC)c(OC)c2)C1 (stereo unspecified) | > 100 µM (inactive) | > 100 µM (inactive) | 77.3 µM (inactive) | > 100 µM (inactive) | 56.4 µM (inactive) | 78.7 µM | > 100 µM (inactive) | 71.6 µM (inactive) | > 100 µM (inactive) | – | > 100 µM (inactive) | > 100 µM (inactive) | > 100 µM (inactive) | – | 54.8 µM (inactive) | > 100 µM (inactive) | > 100 µM (inactive) | > 100 µM (inactive) | > 100 µM (inactive) | > 100 µM (inactive)
3 | CC1(C)CC2CC(CC(C)(C)C2=O)C1=O | > 100 µM (inactive) | > 100 µM (inactive) | > 100 µM (inactive) | > 100 µM (inactive) | > 100 µM (inactive) | > 100 µM | > 100 µM (inactive) | > 100 µM (inactive) | > 100 µM (inactive) | – | > 100 µM (inactive) | > 100 µM (inactive) | > 100 µM (inactive) | > 100 µM (inactive) | > 100 µM (inactive) | > 100 µM (inactive) | > 100 µM (inactive) | > 100 µM (inactive) | > 100 µM (inactive) | > 100 µM (inactive)
4 | O=C(NCc1ccc(Cl)cc1)c1cc2sccc2nc1C(F)(F)F | 18.2 µM (inactive) | 34.2 µM (inactive) | 20.6 µM (inactive) | 34 µM (inactive) | 33.3 µM (inactive) | – | 37.7 µM (inactive) | > 100 µM (inactive) | 45.5 µM (inactive) | 29.7 µM (inactive) | 26.9 µM (inactive) | > 100 µM (inactive) | 24 µM (inactive) | 22.5 µM (inactive) | 54.2 µM (inactive) | 18.9 µM (inactive) | 69 µM (inactive) | 30.5 µM (inactive) | 42.3 µM (inactive) | –
5 | CN(N=O)C(=O)NNC(=O)N(C)N=O | 48.3 µM (inactive) | > 100 µM (inactive) | > 100 µM (inactive) | 29.2 µM (inactive) | 74 µM (inactive) | 37.9 µM | 47.1 µM (inactive) | > 100 µM (inactive) | 71.8 µM (inactive) | 27 µM (inactive) | > 100 µM (inactive) | > 100 µM (inactive) | 26.8 µM (inactive) | > 100 µM (inactive) | 36.2 µM (inactive) | 52.5 µM (inactive) | > 100 µM (inactive) | 83.9 µM (inactive) | – | > 100 µM (inactive)
6 | Cc1ccc(-c2nnc(-c3nn(-c4ccccc4)c4nc5ccccc5nc34)o2)cc1 | 9.93 µM (inactive) | 13.3 µM (inactive) | 14.4 µM (inactive) | 29.9 µM (inactive) | 12 µM (inactive) | 21.4 µM | 7.52 µM (inactive) | 41.7 µM (inactive) | 14 µM (inactive) | 17.9 µM (inactive) | 14.1 µM (inactive) | > 100 µM (inactive) | 6.05 µM (inactive) | 21.5 µM (inactive) | 35.6 µM (inactive) | 11.8 µM (inactive) | 35.9 µM (inactive) | 20.4 µM (inactive) | – | 4.1 µM (inactive)
7 | CCCCOC(=O)C(NC(C(=O)OCCCC)c1cc(C(C)(C)C)c(O)c(C(C)(C)C)c1)c1cc(C(C)(C)C)c(O)c(C(C)(C)C)c1 (stereo unspecified) | > 100 µM (inactive) | > 100 µM (inactive) | > 100 µM (inactive) | > 100 µM (inactive) | 77.1 µM (inactive) | > 100 µM | 75 µM (inactive) | 76 µM (inactive) | > 100 µM (inactive) | > 100 µM (inactive) | > 100 µM (inactive) | > 100 µM (inactive) | – | > 100 µM (inactive) | > 100 µM (inactive) | > 100 µM (inactive) | > 100 µM (inactive) | 74.6 µM (inactive) | > 100 µM (inactive) | 8.63 µM (inactive)
8 | N#Cc1cn(-c2c3ccccc3nc3ccccc23)c(=O)[nH]c1=O | 3.29 µM (inactive) | 4.56 µM (inactive) | 4.19 µM (inactive) | 18.2 µM (inactive) | 3.95 µM (inactive) | 5.96 µM | 7.73 µM (inactive) | 4.27 µM (inactive) | > 10 µM (inactive) | 4.03 µM (inactive) | 8.02 µM (inactive) | 13.8 µM (inactive) | – | 22.2 µM (inactive) | 5.01 µM (inactive) | 18 µM (inactive) | 4.86 µM (inactive) | 3.8 µM (inactive) | 10.7 µM (inactive) | 16.7 µM (inactive)
9 | O=C(c1ccccc1)N1CCc2c([nH]c3ccccc23)C1 | 54.7 µM (inactive) | 50.4 µM (inactive) | 36.9 µM (inactive) | 44.6 µM (inactive) | 38 µM (inactive) | 49.1 µM | 48.6 µM (inactive) | 72.4 µM (inactive) | 33.4 µM (inactive) | 22 µM (inactive) | 38 µM (inactive) | > 100 µM (inactive) | – | 59.7 µM (inactive) | 37.5 µM (inactive) | 16.4 µM (inactive) | 28.7 µM (inactive) | 22.5 µM (inactive) | 35.8 µM (inactive) | 66.8 µM (inactive)
10 | CC(C)c1ccc(C2C3=C(N=C4SCC(=O)N42)C(=O)c2ccccc23)cc1 (stereo unspecified) | > 100 µM (inactive) | 58.9 µM (inactive) | 73.1 µM (inactive) | 77.3 µM (inactive) | 70.6 µM (inactive) | 88.9 µM | 15.7 µM (inactive) | > 100 µM (inactive) | 75.3 µM (inactive) | 22.4 µM (inactive) | 60 µM (inactive) | > 100 µM (inactive) | – | 64.9 µM (inactive) | > 100 µM (inactive) | 74 µM (inactive) | > 100 µM (inactive) | 5.6 µM (inactive) | > 100 µM (inactive) | 22.3 µM (inactive)
11 | COc1cc(OCc2ccc3nc(-c4ccccc4)c(Cl)nc3c2)cc(OC)c1OC | 29.4 µM (inactive) | > 100 µM (inactive) | 32.3 µM (inactive) | 59.2 µM (inactive) | 76.6 µM (inactive) | > 100 µM | 8.71 µM (inactive) | > 100 µM (inactive) | 40.3 µM (inactive) | 33.3 µM (inactive) | > 100 µM (inactive) | 77.1 µM (inactive) | – | 52.7 µM (inactive) | > 100 µM (inactive) | 16.5 µM (inactive) | > 100 µM (inactive) | > 100 µM (inactive) | 26.3 µM (inactive) | 48.4 µM (inactive)
12 | O=C(O)CSc1nnc(Cc2ccccc2)[nH]1 | > 100 µM (inactive) | > 100 µM (inactive) | > 100 µM (inactive) | > 100 µM (inactive) | > 100 µM (inactive) | > 100 µM | > 100 µM (inactive) | > 100 µM (inactive) | > 100 µM (inactive) | > 100 µM (inactive) | > 100 µM (inactive) | > 100 µM (inactive) | > 100 µM (inactive) | > 100 µM (inactive) | > 100 µM (inactive) | > 100 µM (inactive) | > 100 µM (inactive) | > 100 µM (inactive) | > 100 µM (inactive) | –
13 | CC(O)(C(=O)N(O)c1ccc(Cl)cc1)c1ccc(Cl)cc1 (stereo unspecified) | 28.8 µM (inactive) | 26.4 µM (inactive) | 18.7 µM (inactive) | 39.3 µM (inactive) | 28.4 µM (inactive) | 19.2 µM | 20.3 µM (inactive) | 31 µM (inactive) | 23.4 µM (inactive) | 18.6 µM (inactive) | 25.2 µM (inactive) | 37.9 µM (inactive) | 26.8 µM (inactive) | 48.2 µM (inactive) | 31.3 µM (inactive) | 23.6 µM (inactive) | 24.8 µM (inactive) | 26.1 µM (inactive) | 28.1 µM (inactive) | –
14 | C[C@@]12CCCC(=O)N1[C@@H](CO)C(c1ccccc1)O2 (stereo partly specified) | > 100 µM (inactive) | > 100 µM (inactive) | > 100 µM (inactive) | > 100 µM (inactive) | > 100 µM (inactive) | > 100 µM | > 100 µM (inactive) | > 100 µM (inactive) | > 100 µM (inactive) | – | > 100 µM (inactive) | > 100 µM (inactive) | > 100 µM (inactive) | > 100 µM (inactive) | > 100 µM (inactive) | > 100 µM (inactive) | > 100 µM (inactive) | – | > 100 µM (inactive) | > 100 µM (inactive)
15 | CCCCCCCCCCCCc1ccc(S(=O)(=O)O)cc1 | > 100 µM (inactive) | > 100 µM (inactive) | > 100 µM (inactive) | > 100 µM (inactive) | > 100 µM (inactive) | > 100 µM | 88.1 µM (inactive) | > 100 µM (inactive) | > 100 µM (inactive) | – | > 100 µM (inactive) | > 100 µM (inactive) | > 100 µM (inactive) | > 100 µM (inactive) | > 100 µM (inactive) | 89.7 µM (inactive) | 64.6 µM (inactive) | > 100 µM (inactive) | > 100 µM (inactive) | > 100 µM (inactive)
